Assay results published in US10821104B2, “Five-membered heterocyclic amides WNT pathway inhibitor” (SUZHOU SINOVENT PHARMACEUTICALS CO., LTD., priority 2015, dated 2020).
Like-named read-outs stand apart in the source and are kept apart here.

What was measured:
[1] = system: Wnt/β-catenin reporter (Super 8×TOPFLASH) in HEK293 cells cocultured with L-Wnt3a-expressing cells; experiment: 293T/TOPLUC-Wnt3a luciferase reporter gene assay; format: cell-based; conditions: read-out: IC50, inhibition of Wnt/β-catenin reporter gene readout
Experimental: In this assay, HEK293 cells harboring a luciferase-based Wnt/β-catenin reporter (Super 8×TOPFLASH) were cocultured with L-Wnt3a-expressing cells. 293T/TOPLUC-Wnt3a were incubated with small molecules for 24 h. The level of the Luciferase reporter gene was used as an indicator for Wnt ligand-driven, LEF/TCF-dependent transcriptional activities. IC50 is defined as the compound concentration at which 50% of luciferase reporter activity is inhibited.
Results: REX-P compounds were investigated on CrownBio Cell plateform to assay the activity of inhibiting Wnt/β-catenin reporter activity, results are shown in Table 3.

zebrafish axis formation = experiment: Effect of compounds on axis formation of zebrafish (zebrafish phenotype screening); format: in vivo, Zebrafish Danio rerio; conditions: embryos treated from 3 h to 48 h post fertilization, concentration at which 50% of axis formation is inhibited, read-out: IC50, inhibition of axis formation of zebrafish
Experimental: Method: Zebrafish embryos were collected after natural spawning. Embryos were treated from the 16 cell stage (3 hours post fertilization) with different concentration series 100 μM˜0.001 μM of the compound in 1% DMSO/fish water or with DMSO equivalent. The zebrafish were placed in a 6-well microplate at a density of 20 zebrafish per well with 3 mL of fish water. Zebrafish were incubated at 28.5° C. in the dark until 48 h post fertilization, then anesthetized, and imaged under a dissecting stereomicroscope installed with a high-speed video camera (JVC, Japan). Quantitative length of axis was performed with NIS-Elements D 3.1 soft and pixels data were expressed as mean±SEM. The effect of compound on axis formation of zebrafish was calculated based on the following formula: Inhibition on axis growth (%)=[1−Pixel(compound)/Pixel(vehicle)]×100%
(§1) Inhibition curves were generated using GraphPad Prism 6.0 (GraphPad Software Inc., San Diego Calif.) and IC50 was determined with logistic regression.

[2] = system: regeneration of zebrafish tailfin resected; experiment: Effect of compounds on tailfin regeneration of zebrafish (resected caudal fin); format: in vivo; conditions: Danio rerio; 3 d.p.f. zebrafish with resected caudal fins treated until 7 d.p.f.; read-out: IC50, inhibition of regeneration of zebrafish tailfin resected
Experimental: Method: Three days post fertilization (d.p.f) zebrafish with resected caudal fins were placed in water containing 1% DMSO carrier or compounds (10 μM˜0.001 μM) until 7 d.p.f. The zebrafish were placed in a 6-well microplate at a density of 15 zebrafish per well with 3 mL of fish water. Zebrafish were incubated at 28.5° C. in the dark until 7 d.p.f., then anesthetized, and imaged under a dissecting stereomicroscope installed with a high-speed video camera (JVC, Japan). Quantitative length of regeneration of tailfin was performed and pixels data were expressed as mean±SEM. The effect of compound on regeneration of tailfin of zebrafish was calculated based on the following formula: Drug inhibition on regeneration of tailfin (%)=[1−Pixel(compound)/Pixel(vehicle)]×100%.
as §1

[3] = Metabolic stability in human liver microsomes; format: in vitro ADME
Text: (§2) Metabolic stability and pharmacokinetic characteristics of REX-P-7 were detected in human and mouse liver microsomes and in Balb/c mice, respectively.

[4] = Metabolic stability in mouse liver microsomes; format: in vitro ADME
Text: as §2

[5] = In vivo PK in Balb/c mice
Experimental: as §2
Method of PK experiment: 18 male Balb/c mice were divided into 2 groups, 9 animals in each group. Group 1 was administered intravenously with REX-P-7 at a dose of 5 mg/kg. Group 2 was administered orally with REX-P-7 at a dose of 10 mg/kg. Blood samples (100 μL) for PK analysis were collected into EDTA microtainers (K2 EDTA, the final concentration in blood sample is 0.25 mg/mL) from retro orbital plexus at pre-dose, 0.083, 0.25, 0.5, 1, 2, 4, 8, 24 hours post-dosing for PO and IV groups. Immediately after collection, blood collection tubes were gently inverted at least 5 times, ensuring complete mixing, then immediately placed on ice. The blood was centrifuged at 8000 rpm for 5 min at 4° C. to separate the plasma from the blood cells. After separation, 35 μL plasma was transferred into clean tube labeled by the compound name, animal number and timepoint. Plasma was stored at −80° C. until analysis.

[6] = Homo sapiens, HEK293, 24 h incubation
[7] = Balb/c mice, summary of Table 4
[8] = IV dose 5 mg/kg, male Balb/c mice, plasma
[9] = PO dose 10 mg/kg, male Balb/c mice, plasma

Row | Compound | IC50 [1, 6] | IC50 (zebrafish axis formation; Danio rerio) | IC50 [2] | also measured
1 | Cc1cc(-c2ncc(CNC(=O)c3cc(-c4ccccc4)[nH]n3)cc2C)ccn1 [REX-P-2, N-((2′,3-dimethyl-[2,4′-bipyridin]-5-yl)methyl)-5-phenyl-1H-pyrazole-3-carboxamide] | 0.00176 µM | 8.23 µM | 3.91 µM | –
2 | Cc1cc(-c2ncc(CNC(=O)c3nnc(-c4ccccn4)s3)cc2C)ccn1 [REX-P-47, N-((2′,3-dimethyl-[2,4′-bipyridin]-5-yl)methyl)-5-(pyridin-2-yl)-1,3,4-thiadiazole-2-carboxamide] | 0.000673 µM | 0.163 µM | 0.207 µM | –
3 | Cc1cc(-c2ncc(CNC(=O)c3ncc(-c4cccc(Cl)c4)s3)cc2C)ccn1 [REX-P-12, 5-(3-chlorophenyl)-N-((2′,3-dimethyl-[2,4′-bipyridin]-5-yl)methyl)thiazole-2-carboxamide] | 0.00916 µM | > 100 µM | – | –
4 | Cc1cc(-c2ncc(CNC(=O)c3cc(-c4ccccc4)on3)cc2C)ccn1 [REX-P-7, N-((2′,3-dimethyl-[2,4′-bipyridin]-5-yl)methyl)-5-phenylisoxazole-3-carboxamide] | 0.00069 µM | 0.024 µM | 0.047 µM | Eh % (HLM) [3]: 56.7%; Eh % (MLM) [4]: 65%; bioavailability (in words) [5, 7]: good bioavailability; half-life (in words) [5, 7]: good half-life; CL (/F) ([5]; IV dose 5 mg/kg, male Balb/c mice): 0.17 L/h/kg; AUC0-t/Dose [5, 8]: 5770 ng·h/mL; Cmax/Dose [5, 8]: 4.167 µg/mL; AUC0-t/Dose [5, 9]: 2922 ng·h/mL; Cmax/Dose [5, 9]: 1.923 µg/mL; half-life ([5]; mouse, plasma, IV dose 5 mg/kg, male Balb/c mice): 1.68 h; bioavailability ([5]; mouse, plasma, PO 10 mg/kg vs IV 5 mg/kg, male Balb/c mice): 50.6%; half-life ([5]; mouse, plasma, PO dose 10 mg/kg, male Balb/c mice): 1.62 h
5 | Cc1cc(-c2ncc(CNC(=O)c3nc(-c4ccccc4)cs3)cc2C)ccn1 [REX-P-6, N-((2′,3-dimethyl-[2,4′-bipyridin]-5-yl)methyl)-4-phenylthiazole-2-carboxamide] | > 1 µM | > 100 µM | – | –
6 | Cc1cc(-c2ncc(CNC(=O)c3cc(-c4ccccc4)n(C)n3)cc2C)ccn1 [REX-P-9, N-((2′,3-dimethyl-[2,4′-bipyridin]-5-yl)methyl)-1-methyl-5-phenyl-1H-pyrazole-3-carboxamide] | > 1 µM | > 20 µM | – | –
7 | Cc1cc(-c2ncc(CNC(=O)c3nnc(-c4ncccn4)s3)cc2C)ccn1 [REX-P-51, N-((2′,3-dimethyl-[2,4′-bipyridin]-5-yl)methyl)-5-(pyrimidin-2-yl)-1,3,4-thiadiazole-2-carboxamide] | – | > 10 µM | – | –
8 | Cc1cc(-c2ncc(CNC(=O)c3cc(-c4ccccc4)nn3C)cc2C)ccn1 [REX-P-1, N-((2′,3-dimethyl-[2,4′-bipyridin]-5-yl)methyl)-1-methyl-3-phenyl-1H-pyrazole-5-carboxamide] | 0.0926 µM | 29.9 µM | – | –
9 | Cc1cc(-c2ncc(CNC(=O)c3nnc(-c4ncccc4F)s3)cc2C)ccn1 [REX-P-48, N-((2′,3-dimethyl-[2,4′-bipyridin]-5-yl)methyl)-5-(3-fluoropyridin-2-yl)-1,3,4-thiadiazole-2-carboxamide] | – | 0.896 µM | 0.721 µM | –
10 | Cc1cc(-c2ncc(CNC(=O)c3nnc(-c4cccc(C)n4)s3)cc2C)ccn1 [REX-P-50, N-((2′,3-dimethyl-[2,4′-bipyridin]-5-yl)methyl)-5-(6-methylpyridin-2-yl)-1,3,4-thiadiazole-2-carboxamide] | 0.000389 µM | 0.064 µM | 0.111 µM | –
11 | 5-(4-chlorophenyl)-N-((2′,3-dimethyl-[2,4′-bipyridin]-5-yl)methyl)thiazole-2-carboxamide [REX-P-13] | – | – | – | IC50 ([1]; 24 h incubation): > 1 µM; IC50 (zebrafish axis formation): > 10 µM
12 | Cc1cc(-c2ncc(CNC(=O)c3cnc(-c4cccc(Cl)c4)s3)cc2C)ccn1 [REX-P-22, 2-(3-chlorophenyl)-N-((2′,3-dimethyl-[2,4′-bipyridin]-5-yl)methyl)thiazole-5-carboxamide] | 0.00072 µM | 0.178 µM | 0.028 µM | –
13 | Cc1cc(-c2ncc(CNC(=O)c3cc(-c4ccccn4)[nH]n3)cc2C)ccn1 [REX-P-16, N-((2′,3-dimethyl-[2,4′-bipyridin]-5-yl)methyl)-5-(pyridin-2-yl)-1H-pyrazole-3-carboxamide] | 0.0168 µM | > 10 µM | – | –
14 | Cc1cc(-c2ncc(CNC(=O)c3csc(-c4ccccc4)n3)cc2C)ccn1 [REX-P-5, N-((2′,3-dimethyl-[2,4′-bipyridin]-5-yl)methyl)-2-phenylthiazole-4-carboxamide] | > 1 µM | > 40 µM | – | –
15 | Cc1cc(-c2ncc(CNC(=O)c3nnc(-c4cccc(F)c4)s3)cc2C)ccn1 [REX-P-46, N-((2′,3-dimethyl-[2,4′-bipyridin]-5-yl)methyl)-5-(3-fluorophenyl)-1,3,4-thiadiazole-2-carboxamide] | 0.000125 µM | 0.01 µM | 0.016 µM | –
16 | Cc1cc(-c2ncc(CC(=O)Nc3ccc(-c4cnccn4)cn3)cc2C)ccn1 [LGK-974, reference compound] | 0.000574 µM | 0.583 µM | 0.462 µM | –
17 | Cc1cc(-c2ncc(CNC(=O)c3nnc(-c4ccccc4)s3)cc2C)ccn1 [REX-P-8, N-((2′,3-dimethyl-[2,4′-bipyridin]-5-yl)methyl)-5-phenyl-1,3,4-thiadiazole-2-carboxamide] | 0.00192 µM | 0.021 µM | 0.027 µM | –
18 | Cc1cc(-c2ncc(CNC(=O)c3nnc(-c4ncccc4C)s3)cc2C)ccn1 [REX-P-56, N-((2′,3-dimethyl-[2,4′-bipyridin]-5-yl)methyl)-5-(3-methylpyridin-2-yl)-1,3,4-thiadiazole-2-carboxamide] | – | 0.062 µM | – | –
19 | Cc1cc(-c2ncc(CNC(=O)c3nnc(-c4cnccn4)s3)cc2C)ccn1 [REX-P-52, N-((2′,3-dimethyl-[2,4′-bipyridin]-5-yl)methyl)-5-(pyrazin-2-yl)-1,3,4-thiadiazole-2-carboxamide] | 0.00138 µM | 0.64 µM | 0.746 µM | –
20 | Cc1cc(-c2ncc(CNC(=O)c3nnc(-c4cncc(F)c4)s3)cc2C)ccn1 [REX-P-49, N-((2′,3-dimethyl-[2,4′-bipyridin]-5-yl)methyl)-5-(5-fluoropyridin-3-yl)-1,3,4-thiadiazole-2-carboxamide] | 0.000248 µM | 0.052 µM | 0.137 µM | –
21 | Cc1cc(-c2ncc(CNC(=O)c3nnc(-c4cccc(Cl)c4)s3)cc2C)ccn1 [REX-P-45, 5-(3-chlorophenyl)-N-((2′,3-dimethyl-[2,4′-bipyridin]-5-yl)methyl)-1,3,4-thiadiazole-2-carboxamide] | 0.00031 µM | 0.014 µM | 0.023 µM | –
22 | Cc1cc(-c2ncc(CNC(=O)c3ncc(-c4ccccc4)s3)cc2C)ccn1 [REX-P-4, N-((2′,3-dimethyl-[2,4′-bipyridin]-5-yl)methyl)-5-phenylthiazole-2-carboxamide] | < 0.0001 µM | 0.0369 µM | – | –
23 | Cc1cc(-c2ncc(CNC(=O)c3cnc(-c4ccccc4)s3)cc2C)ccn1 [REX-P-3, N-((2′,3-dimethyl-[2,4′-bipyridin]-5-yl)methyl)-2-phenylthiazole-5-carboxamide] | < 0.0001 µM | 0.144 µM | 0.084 µM | –
